Read-outs that look alike come from different tables or passages of the source.
Legend:
P. falciparum 3D7 strain = assay: P. falciparum growth inhibition assay (3D7 strain); assay type: cell-based, Plasmodium falciparum
Description: After the synchronization process, a new culture at 1.5% parasitemia and 2% hematocrit was established and 150 μL aliquots of it were transferred to 96-well plates.
The required amounts of peptides, antimalarial compounds and dyes were added in each well at different concentrations and in triplicates. A positive growth control of untreated parasites and a negative growth control of parasites treated with a lethal dose of chloroquine (1 μM) were also included.
Parasites were grown for 48 h, a complete replication cycle, in standard culturing conditions (5% O2, 5% CO2, and 90% N2 at 37° C.). After the incubation period, 3 μL of culture from each well were mixed with 197 μL of PBS containing 0.1 μM Syto 11 (Thermo Fisher Scientific Inc), to obtain a final concentration of ca. 1-10×10^6 cells/ml.
Parasitemia was assessed by flow cytometry using a LSRFortessa flow cytometer (BD Biosciences, San Jose, CA, USA) set up with the 4 lasers, 20 parameters standard configuration. The single-cell population was selected on a forward-side scatter scattergram.
Growth inhibition was calculated taking as reference values both the growth rate of the untreated culture and the growth rate of the culture treated with chloroquine.

[1] = system: human umbilical vein endothelial cell cultures; assay: Cytotoxicity (CC50) and in vitro therapeutic index; assay type: cell-based; conditions: 50% cytotoxic concentration (CC50)/IC50 in 3D7 strain
[2] = Plasmodium falciparum, 3D7 strain, Example 8, read-out: IC50 in 3D7 strain

Compound	IC50 (P. falciparum 3D7 strain; [2]) [µM]	antimalarial / antiplasmodial activity in vitro (P. falciparum 3D7 strain; 3D7 strain)	other results
Cc1c[n+](CCCCCCCCCC[n+]2ccc(/C=C/c3ccc(N(c4ccccc4)c4ccccc4)cc3)c(C)c2)ccc1/C=C/c1ccc(N(c2ccccc2)c2ccccc2)cc1 [EMA366, 1,1′-(decane-1,10-diyl)bis{4-[(E)-4-(diphenylamino)styryl]-3-methylpyridin-1-ium} dibromide]	0.52	–	–
Cc1ccc2c(c1)sc(-c1ccc(N(C)C)cc1)[n+]2C.[Cl-] [ThT, Thioflavin T, reference compound]	–	did not exhibit significant antiplasmodial activity	IC50 (P. falciparum 3D7 strain; Plasmodium falciparum, 3D7 strain, 48 h, Table 2, read-out: IC50 in 3D7 strain (μM) ± SEM): 1.57 ± 0.23 µM
Cc1c[n+](CCCCCCCCCC[n+]2ccc(/C=C/c3ccc(N(C)CCC#N)cc3)c(C)c2)ccc1/C=C/c1ccc(N(C)CCC#N)cc1.[Br-].[Br-] [EMA359, 1,1′-(decane-1,10-diyl)bis{4-{(E)-4-[(2-cyanoethyl)methylamino]styryl}-3-methylpyridin-1-ium} dibromide]	0.11	potent antimalarial activity	–
O=C(NCNc1c2c(nc3cc(Cl)ccc13)CCCC2)c1ccc2nc(-c3ccc(Cl)cc3)c3c(c2c1)NCCC3 [DP128, reference compound]	–	–	Therapeutic index in vitro [1]: 75.4; IC50 (P. falciparum 3D7 strain; Plasmodium falciparum, 3D7, 48 h, read-out: IC50 in 3D7 strain (μM) ± SEM): 0.65 ± 0.14 µM
Cc1c[n+](CCCCCCCCCC[n+]2ccc(/C=C/c3ccc(N4CCCC4)cc3)c(C)c2)ccc1/C=C/c1ccc(N2CCCC2)cc1 [EMA368, 1,1′-(decane-1,10-diyl)bis{3-methyl-4-[(E)-4-(pyrrolidin-1-yl)styryl]pyridin-1-ium} dibromide]	0.29	–	–
Nc1c(/N=N/c2ccc(-c3ccc(/N=N/c4cc(S(=O)(=O)[O-])c5ccccc5c4N)cc3)cc2)cc(S(=O)(=O)[O-])c2ccccc12.[Na+].[Na+] [Congo Red, reference compound]	–	did not exhibit significant antiplasmodial activity	IC50 (P. falciparum 3D7 strain; 3D7 strain, 48 h, Table 2, read-out: IC50 in 3D7 strain (μM) ± SEM): > 15 µM
Cc1c[n+](CCCCCCCCCC[n+]2ccc(/C=C/c3ccc(N4CCOCC4)cc3)c(C)c2)ccc1/C=C/c1ccc(N2CCOCC2)cc1.[Br-].[Br-] [EMA377, 1,1′-(decane-1,10-diyl)bis{3-methyl-4-[(E)-4-morpholinostyryl]pyridin-1-ium} dibromide]	0.06	potent antimalarial activity	–
Cc1c[n+](CCCCCCCCCC[n+]2ccc(/C=C/c3ccc(N(C)C)cc3)c(C)c2)ccc1/C=C/c1ccc(N(C)C)cc1.[Br-].[Br-] [EMA357, 1,1′-(decane-1,10-diyl)bis{4-[(E)-4-(dimethylamino)styryl]-3-methylpyridin-1-ium} dibromide]	0.12	potent antimalarial activity	–

Second part, led by results:

IC50 (P. falciparum 3D7 strain; [2]) [µM]	Compound	antimalarial / antiplasmodial activity in vitro (P. falciparum 3D7 strain; 3D7 strain)	other results
0.1	CCN(CC)c1ccc(/C=C/c2cc[n+](CCCCCCCCCC[n+]3ccc(/C=C/c4ccc(N(CC)CC)cc4)c(Cl)c3)cc2Cl)cc1.[Br-].[Br-] [PRC-50, 1,1′-(decane-1,10-diyl)bis{3-chloro-4-[(E)-4-(diethylamino)styryl]pyridin-1-ium} dibromide]	potent antimalarial activity	–
0.15	CCN(CC)c1ccc(/C=C/c2cc[n+](CCCCCCCCCC[n+]3ccc(/C=C/c4ccc(N(CC)CC)cc4)cc3)cc2)cc1.[Br-].[Br-] [PRC-39, 1,1′-(decane-1,10-diyl)bis{4-[(E)-4-(diethylamino)styryl]pyridin-1-ium} dibromide]	potent antimalarial activity	–
0.42	CCN(CC)c1ccc(/C=C/c2cc[n+](CCCC[n+]3ccc(/C=C/c4ccc(N(CC)CC)cc4)c(C)c3)cc2C)cc1 [PRC-5, 1,1′-(butane-1,4-diyl)bis{4-[(E)-4-(diethylamino)styryl]-3-methylpyridin-1-ium} dibromide]	–	–
0.54	CCN(CC)c1ccc(/C=C/c2cc[n+](Cc3cccc(C[n+]4ccc(/C=C/c5ccc(N(CC)CC)cc5)c(C)c4)c3)cc2C)cc1 [PRC-31, 1,1′-[1,3-phenylenebis(methylene)]bis{4-[(E)-4-(diethylamino)styryl]-3-methylpyridin-1-ium} dibromide]	–	–
0.2	CCN(CC)c1ccc(/C=C/c2cc[n+](CCOCCOCC[n+]3ccc(/C=C/c4ccc(N(CC)CC)cc4)c(C)c3)cc2C)cc1 [PRC-20, 1,1′-(3,6-dioxaoctane-1,8-diyl)bis{4-[(E)-4-(diethylamino)styryl]-3-methylpyridin-1-ium} diiodide]	–	–
0.46	CCN(CC)c1ccc(/C=C/c2cc[n+](Cc3ccc(C[n+]4ccc(/C=C/c5ccc(N(CC)CC)cc5)c(C)c4)cc3)cc2C)cc1 [PRC-29, 1,1′-[1,4-phenylenebis(methylene)]bis{4-[(E)-4-(diethylamino)styryl]-3-methylpyridin-1-ium} dibromide]	–	–
0.06	CCN(CC)c1ccc(/C=C/c2cc[n+](CCCCCCCCCCCC[n+]3ccc(/C=C/c4ccc(N(CC)CC)cc4)c(C)c3)cc2C)cc1.[Br-].[Br-] [PRC-15, 1,1′-(dodecane-1,12-diyl)bis{4-[(E)-4-(diethylamino)styryl]-3-methylpyridin-1-ium} dibromide]	potent antimalarial activity	–
0.05	CCN(CC)c1ccc(/C=C/c2cc[n+](CCCCCCCCC[n+]3ccc(/C=C/c4ccc(N(CC)CC)cc4)c(C)c3)cc2C)cc1.[Br-].[Br-] [PRC-25, 1,1′-(nonane-1,9-diyl)bis{4-[(E)-4-(diethylamino)styryl]-3-methylpyridin-1-ium} dibromide]	potent antimalarial activity	IC50 (P. falciparum 3D7 strain; Plasmodium falciparum, 3D7 strain, read-out: IC50 in P. falciparum in vitro cultures): 0.047 µM
0.14	CCN(CC)c1ccc(/C=C/c2cc[n+](CCCCCCCC[n+]3ccc(/C=C/c4ccc(N(CC)CC)cc4)c(C)c3)cc2C)cc1.[Br-].[Br-] [PRC-8, 1,1′-(octane-1,8-diyl)bis{4-[(E)-4-(diethylamino)styryl]-3-methylpyridin-1-ium} dibromide]	potent antimalarial activity	–
0.06	CCN(CC)c1ccc(/C=C/c2cc[n+](CCCCCCCCCCC[n+]3ccc(/C=C/c4ccc(N(CC)CC)cc4)c(C)c3)cc2C)cc1.[Br-].[Br-] [PRC-14, 1,1′-(undecane-1,11-diyl)bis{4-[(E)-4-(diethylamino)styryl]-3-methylpyridin-1-ium} dibromide]	potent antimalarial activity	–
0.25	CCN(CC)c1ccc(/C=C/c2cc[n+](CCOCCOCCOCC[n+]3ccc(/C=C/c4ccc(N(CC)CC)cc4)c(C)c3)cc2C)cc1 [PRC-28, 1,1′-(3,6,9-trioxaundecane-1,11-diyl)bis{4-[(E)-4-(diethylamino)styryl]-3-methylpyridin-1-ium} dichloride]	–	–
0.1	CCN(CC)c1ccc(/C=C/c2cc[n+](CCCCCCCCCC[n+]3ccc(/C=C/c4ccc(N(CC)CC)cc4)c(Br)c3)cc2Br)cc1.[Br-].[Br-] [PRC-42, 1,1′-(decane-1,10-diyl)bis{3-bromo-4-[(E)-4-(diethylamino)styryl]pyridin-1-ium} dibromide]	potent antimalarial activity	–
